In brackets after ≈: the same amount, converted by molar mass. Activity calls are given as the source filed them. No cut-off for these calls is given here.
Tests used:
Escherichia coli [1] = test: Antibacterial activity against Escherichia coli assessed as growth inhibition at 0.5 mg/ml after 24 hrs by well diffusion method; assay type: functional; conditions: read-out: DIZ
Micrococcus luteus [2] = test: Antibacterial activity against Micrococcus luteus assessed as compound concentration required to complete growth inhibition at 8 hrs by tube dilution method; assay type: functional
Klebsiella pneumoniae [3] = test: Antibacterial activity against Klebsiella pneumoniae assessed as growth inhibition at 0.5 mg/ml after 24 hrs by well diffusion method; assay type: functional; conditions: read-out: DIZ
Bacillus subtilis [4] = test: Antibacterial activity against Bacillus subtilis assessed as growth inhibition at 0.5 mg/ml after 24 hrs by well diffusion method; assay type: functional; conditions: read-out: DIZ
Klebsiella pneumoniae [5] = test: Antibacterial activity against Klebsiella pneumoniae assessed as compound concentration required to complete growth inhibition at 8 hrs by tube dilution method; assay type: functional
COLO 205 [6] = test: Cytotoxicity against human COLO205 cells assessed as decrease in cell number after 24 hrs by MTT assay; assay type: functional, cell-based; conditions: COLO 205, 24 h
Escherichia coli [7] = test: Antibacterial activity against Escherichia coli assessed as compound concentration required to complete growth inhibition at 8 hrs by tube dilution method; assay type: functional
Micrococcus luteus [8] = test: Antibacterial activity against Micrococcus luteus assessed as growth inhibition at 0.5 mg/ml after 24 hrs by well diffusion method; assay type: functional; conditions: read-out: DIZ
Bacillus subtilis [9] = test: Antibacterial activity against Bacillus subtilis assessed as compound concentration required to complete growth inhibition at 8 hrs by tube dilution method; assay type: functional
THP-1 = test: Cytotoxicity against human THP1 cells assessed as decrease in cell number after 24 hrs by MTT assay; assay type: functional, cell-based; conditions: THP-1, 24 h
[10] = Cytotoxicity against human U937 cells assessed as decrease in cell number after 24 hrs by MTT assay; assay type: functional, cell-based; conditions: U-937, 24 h
[11] = Cytotoxicity against human HL60 cells assessed as decrease in cell number after 24 hrs by MTT assay; assay type: functional, cell-based; conditions: HL-60, 24 h
[12] = Cytotoxicity against mouse B16F10 cells assessed as decrease in cell number after 24 hrs by MTT assay; assay type: functional, cell-based; conditions: B16-F10, 24 h
HL-60 = test: Cytotoxicity against human HL60 cells assessed as growth inhibition at 200 ug/ml after 24 hrs by MTT assay; assay type: functional, cell-based
COLO 205 [13] = test: Cytotoxicity against human COLO205 cells assessed as growth inhibition at 200 ug/ml after 24 hrs by MTT assay; assay type: functional, cell-based

SMILES	zone of inhibition at 500 µg/mL (Escherichia coli [1]) [mm]	MIC (Micrococcus luteus [2]) [µg/mL]	zone of inhibition at 500 µg/mL (Klebsiella pneumoniae [3]) [mm]	zone of inhibition at 500 µg/mL (Bacillus subtilis [4]) [mm]	MIC (Klebsiella pneumoniae [5]) [µg/mL]	IC50 (COLO 205 [6]) [µg/mL]	MIC (Escherichia coli [7]) [µg/mL]	zone of inhibition at 500 µg/mL (Micrococcus luteus [8]) [mm]	MIC (Bacillus subtilis [9]) [µg/mL]	IC50 (THP-1) [µg/mL]	IC50 [10] [µg/mL]	IC50 [11] [µg/mL]	IC50 [12] [µg/mL]	growth inhibition (GI) (HL-60)	growth inhibition (GI) (COLO 205 [13])
C=C(C(O)/C=C/C(C)=O)[C@@H]1C[C@@H](O)[C@@]2(C)[C@@H]1[C@@H]1[C@H](C)CC[C@@H]12 (stereo partly specified)	17.3	200 (≈ 657 µM)	11.7	12	100 (≈ 328 µM)	42.1 (≈ 138 µM)	200 (≈ 657 µM)	12.7	200 (≈ 657 µM)	38.9 (≈ 128 µM)	13 (≈ 42.8 µM)	42.3 (≈ 139 µM)	17 (≈ 55.9 µM)		
C=C(C(=O)/C=C/C(C)(O)COC(C)=O)[C@@H]1C[C@@H](O)[C@@]2(C)[C@@H]1[C@@H]1[C@H](C)CC[C@@H]12 (stereo partly specified)	17	50 (≈ 133 µM)	14	15.7	100 (≈ 266 µM)	35.1 (≈ 93.3 µM)	100 (≈ 266 µM)	16.7	100 (≈ 266 µM)	15.2 (≈ 40.3 µM)	9.58 (≈ 25.4 µM)	51.8 (≈ 138 µM)	3.28 (≈ 8.71 µM)		
C=C(C(=O)/C=C/C(C)(O)COC(C)=O)[C@@H]1C[C@@H](OC(C)=O)[C@@]2(C)[C@@H]1[C@@H]1[C@H](C)CC[C@@H]12 (stereo partly specified)	23.7	100 (≈ 239 µM)	19.7	21.7	200 (≈ 478 µM)	26.8 (≈ 64 µM)	200 (≈ 478 µM)	21.7	100 (≈ 239 µM)	33.9 (≈ 80.9 µM)	8.8 (≈ 21 µM)	35.6 (≈ 85.1 µM)	4.41 (≈ 10.5 µM)		
C=C(C[C@@H](O)C=C(C)C)[C@@H]1C[C@@H](O)[C@@]2(C)[C@@H]1[C@@H]1[C@H](C)CC[C@@H]12	12.3	100 (≈ 328 µM)	16.7	13.7	50 (≈ 164 µM)	72.2 (≈ 237 µM)	100 (≈ 328 µM)	14	100 (≈ 328 µM)	53 (≈ 174 µM)	51.3 (≈ 168 µM)	41.6 (≈ 137 µM)	46.7 (≈ 153 µM)		
C=C(CC(C=C(C)C)OC(C)=O)[C@@H]1C[C@@H](O)[C@@]2(C)[C@@H]1[C@@H]1[C@H](C)CC[C@@H]12 (stereo partly specified)	10.7	200 (≈ 577 µM)	11.7	0	200 (≈ 577 µM)	87.3 (≈ 252 µM)	200 (≈ 577 µM)	10.3	400 (≈ 1150 µM)	50.3 (≈ 145 µM)	60 (≈ 173 µM)	198 (≈ 572 µM)	73.2 (≈ 211 µM)		
C=C(C/C=C/C(C)(C)O)[C@@H]1C[C@@H](O)[C@@]2(C)[C@@H]1[C@@H]1[C@H](C)CC[C@@H]12	12.7	100 (≈ 328 µM)	16	13.7	100 (≈ 328 µM)		100 (≈ 328 µM)	16.3	100 (≈ 328 µM)	50 (≈ 164 µM)	42.3 (≈ 139 µM)		174 (≈ 572 µM)	inactive	inactive
C=C(C(O)/C=C/C(C)(O)COC(C)=O)[C@@H]1C[C@@H](OC(C)=O)[C@@]2(C)[C@@H]1[C@@H]1[C@H](C)CC[C@@H]12 (mixture of isomers)	11.3	50	10.7	14.3	50	36.1	50	14.7	50	14.2	5.6	41	3.45		
C=C(C(O)/C=C/C(C)(O)COC(C)=O)[C@@H]1CC(=O)[C@@]2(C)[C@@H]1[C@@H]1[C@H](C)CC[C@@H]12 (mixture of isomers)	0	200	0	0	200		100	0	100	52	43.6	43.9	58.5		inactive
C=C(CC(C=C(C)C)OC(C)=O)[C@@H]1C[C@@H](OC(C)=O)[C@@]2(C)[C@@H]1[C@@H]1[C@H](C)CC[C@@H]12 (mixture of isomers)	0	400	12.3	11.3	400	67.1	400	12.3	400	77.8	40.1	84.9	29		
C=C(C/C=C/C(C)(C)O)[C@@H]1C[C@@H](OC(C)=O)[C@@]2(C)[C@@H]1[C@@H]1[C@H](C)CC[C@@H]12 (mixture of isomers)	13.3	200	16	15.3	200	64.7	400	15.3	200	44.6	48.5	39.9	47.1		
C=C(C)C(O)CCC(=C)[C@@H]1C[C@@H](OC(C)=O)[C@@]2(C)[C@@H]1[C@@H]1[C@H](C)CC[C@@H]12 (mixture of isomers)	15.7	50	19	13.7	50	145	100	16.3	100	58.1	35.1	157	104		
COc1cc([C@@H]2c3cc4c(cc3[C@@H](O[C@@H]3O[C@@H]5CO[C@@H](C)O[C@H]5[C@H](O)[C@H]3O)[C@H]3COC(=O)[C@H]23)OCO4)cc(OC)c1O [ETOPOSIDE]						1.07 (≈ 1.82 µM)				5.02 (≈ 8.53 µM)	2.27 (≈ 3.86 µM)	2.12 (≈ 3.6 µM)	4.12 (≈ 7 µM)		
CN[C@@H]1[C@H](O[C@H]2[C@H](O[C@H]3[C@H](O)[C@@H](O)[C@H](N=C(N)N)[C@@H](O)[C@@H]3N=C(N)N)O[C@@H](C)[C@]2(O)C=O)O[C@@H](CO)[C@H](O)[C@H]1O.CN[C@@H]1[C@H](O[C@H]2[C@H](O[C@H]3[C@H](O)[C@@H](O)[C@H](N=C(N)N)[C@@H](O)[C@@H]3N=C(N)N)O[C@@H](C)[C@]2(O)C=O)O[C@@H](CO)[C@H](O)[C@H]1O.O=S(=O)(O)O.O=S(=O)(O)O.O=S(=O)(O)O [STREPTOMYCIN SULFATE]	30.3	6.25	27.3	28.7	6.25		6.25	28.7	6.25						
